Assay [1] deals with T1, CDK1:Cyclin-B (Homo sapiens, UniProt P06493).
T1 construct: purchased New England Biolabs 6020; host or cells: insect cells
Nature of the assay: CDK1 Screening Assay. It is filed as biochemical. How it is done: A kinase reaction mixture was prepared containing 50 mM Tris-HCl pH=8, 10 mM MgCl2, 0.1 mM Na3PO4, 1 mM DTT, 10 μM ATP, 0.025 μM biotinylated histone-H1 peptide substrate (also referred to herein as a CDK-1 peptide substrate, see substrate table) and 0.2 μCuries per well ^33P-γ-ATP (2000–3000 Ci/mmol). 70 μL of the kinase reaction mixture was dispensed into the well of a streptavidin coated FlashPlate™ (Cat. # SMP 103, NEN, Boston, Mass.). Then 1 μL of test compound stock in 100% DMSO was added to the wells resulting in a final concentration of 1% DMSO in the reaction with a 100 μl final reaction volume. Next, CDK1:Cyclin-B protein (New England Biolads, infra) was diluted in 50 mM Tris-HCl pH=8.0, 0.1% BSA at a concentration of 1 ng per μL and 30 μl (30 ng enzyme per test well) was added to each well to initiate the reaction. The reaction was incubated for one hour at 30° C. At the end of the 1-hour incubation, the reaction was terminated by aspirating the reaction mixture from the plate and washing the wells twice with PBS containing 100 mM EDTA. The histone-H1 biotinylated peptide substrate became immobilized on the Flashplate™ (Perkin Elmer, NEN Boston, Mass.) and the incorporation of ^33P-γ-ATP was measured by reading the plate on a scintillation counter. Inhibition of the enzymatic activity of CDK1 was measured by observing a reduced amount of ^33P-γ-ATP incorporated into the immobilized peptide.
(§1) Assays to test compound inhibition of other kinases were preformed using methods that measure the amount of phosphorylation of a biotinylated peptide substrate. Biotinylated peptide substrates were selected from the literature as appropriate for the enzyme being evaluated. The general procedure used to assay for kinase activity is as follows: a kinase reaction mix was prepared in 50 mM Tris-HCl pH=8, 10 mM MgCl2, 0.1 mM Na3VO4, 1 mM DTT, 10 μM ATP, 0.25–1 μM biotinylated peptide substrate, 0.2–0.8 μCuries per well ^33P-γ-ATP (2000–3000 Ci/mmol). Assay conditions vary slightly for each protein kinase, for example, insulin receptor kinase requires 10 mM MnCl2 for activity and Calmodulin-dependent protein kinase requires calmodulin and 2 mM CaCl2. The reaction mixture was dispensed into the wells of a streptavidin coated Flashplate and 1 μL test compound in 100% DMSO was added to a 100 μL reaction volume resulting in a final concentration of 1% DMSO in the reaction. Enzyme was diluted in 50 mM Tris-HCl pH=8.0, 0.1% BSA and added to each well. The reaction was incubated for one hour at 30° C. in the presence of a test compound. After one hour the reaction mix was aspirated from the plate and the plate was washed with PBS containing 100 mM EDTA. The plate was read on a scintillation counter to determine ^33P-γ-ATP incorporated into the immobilized peptide substrate. Test compounds were assayed in duplicate at 8 concentrations (100 μM, 10 μM, 1 μM, 100 nM, 10 nM, 1 nM, 100 pM, 10 pM). A maximum and minimum signal for the assay was determined on each plate. […] Known inhibitor compounds appropriate for the kinase being assayed were also included on each plate.
(§2) The form of VEGF-R (vascular endothelial growth factor receptor-2) used was a fusion protein containing a polyhistidine tag at the N-terminus followed by amino acids 786–1343 of the rat VEGF-R2 kinase domain (GenBank Accession #U93306). The form of CDK1 (cyclin dependent kinase 1) used was isolated from insect cells expressing both the human CDK1 catalytic subunit and its positive regulatory subunit cyclin B (CDK1:cyclin B protein, New England Biolabs, Beverly, Mass., Cat. #6020). The form of CDK4 (cyclin dependent kinase 4) used contains amino acids 769 to 921 of the mouse […] protein found in the GST-retinoblastoma protein construct (Santa Cruz Biotechnology, Santa Cruz, Calif.; Cat. #SC-4112). The form of EGF-R1 (epidermal growth factor receptor 1) used was purified from human A431 cell membranes (Sigma, St. Louis, Mo., Cat.# E3641). […]

Assay [2] addresses T2, VEGF-R (rat VEGF-R2 kinase domain) (Rattus norvegicus, UniProt O08775).
T2 construct: 6xHis (polyhistidine) (N)
Nature of the assay: VEGF-R Screening Assay. It is filed as biochemical. On the procedure:
A kinase reaction mixture was prepared containing 50 mM Tris-HCl pH=8, 10 mM MgCl2, 0.1 mM Na3PO4, 1 mM DTT, 10 μM ATP, 0.025 μM biotinylated peptide substrate (also referred to herein as PLC-1 biotinylated peptide substrate and PDGF receptor substrate, sequence provided in the peptide substrate table) and 0.8 μCuries per well ^33P-γ-ATP (2000–3000 Ci/mmol). 70 μL of the kinase reaction mixture was dispensed into the well of a streptavidin coated FlashPlate™ (Cat. # SMP103, NEN, Boston, Mass.). Then 1 μL of test compound stock in 100% DMSO was added to the wells resulting in a final concentration of 1% DMSO in the reaction with a 100 μL final reaction volume. Next, soluble rat VEGF tyrosine kinase containing an N-terminal 6XHIS tag was diluted in 50 mM Tris-HCl pH=8.0, 0.1% BSA at a concentration of 5 ng per μL and 30 μL (150 ng enzyme per test well) was added to each well to initiate the reaction. The reaction was incubated for one hour at 30° C. At the end of the 1-hour incubation, the reaction was terminated by aspirating the reaction mixture from the plate and washing the wells twice with PBS containing 100 mM EDTA. The PLC1 biotinylated peptide substrate became immobilized on the Flashplate™ and the incorporation of ^33P-γ-ATP was measured by reading the plate on a scintillation counter. Inhibition of the enzymatic activity of the VEGF-R was measured by observing a reduced amount of ^33P-γ-ATP incorporated into the immobilized peptide.
as §1, §2

Each structure is given as a SMILES string. A value given as a limit tells only on which side of the number the result lay.

T2 sequence (O08775 786-1343): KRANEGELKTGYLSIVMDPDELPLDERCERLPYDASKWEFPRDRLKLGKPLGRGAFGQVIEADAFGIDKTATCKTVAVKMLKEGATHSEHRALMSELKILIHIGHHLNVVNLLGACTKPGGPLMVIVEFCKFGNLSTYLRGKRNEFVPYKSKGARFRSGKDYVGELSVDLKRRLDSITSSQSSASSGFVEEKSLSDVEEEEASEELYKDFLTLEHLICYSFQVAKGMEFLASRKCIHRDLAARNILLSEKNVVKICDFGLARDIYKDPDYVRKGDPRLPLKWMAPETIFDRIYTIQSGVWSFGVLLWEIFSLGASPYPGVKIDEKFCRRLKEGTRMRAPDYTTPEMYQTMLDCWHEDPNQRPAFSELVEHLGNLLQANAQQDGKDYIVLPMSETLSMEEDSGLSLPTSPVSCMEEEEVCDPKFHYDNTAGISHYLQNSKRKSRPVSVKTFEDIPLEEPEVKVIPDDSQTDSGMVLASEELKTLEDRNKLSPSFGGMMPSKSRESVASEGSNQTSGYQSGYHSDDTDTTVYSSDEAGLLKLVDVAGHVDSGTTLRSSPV
T1 sequence (P06493 whole entry): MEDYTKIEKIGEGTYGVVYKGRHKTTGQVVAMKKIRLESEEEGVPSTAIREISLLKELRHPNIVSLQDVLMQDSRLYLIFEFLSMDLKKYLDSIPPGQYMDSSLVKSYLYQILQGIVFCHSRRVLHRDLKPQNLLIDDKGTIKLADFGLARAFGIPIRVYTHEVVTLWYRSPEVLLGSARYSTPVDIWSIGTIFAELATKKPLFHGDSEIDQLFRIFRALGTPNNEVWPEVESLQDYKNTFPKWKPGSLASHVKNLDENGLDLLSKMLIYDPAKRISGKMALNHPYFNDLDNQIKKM
T1 sequence (P14635 whole entry partner): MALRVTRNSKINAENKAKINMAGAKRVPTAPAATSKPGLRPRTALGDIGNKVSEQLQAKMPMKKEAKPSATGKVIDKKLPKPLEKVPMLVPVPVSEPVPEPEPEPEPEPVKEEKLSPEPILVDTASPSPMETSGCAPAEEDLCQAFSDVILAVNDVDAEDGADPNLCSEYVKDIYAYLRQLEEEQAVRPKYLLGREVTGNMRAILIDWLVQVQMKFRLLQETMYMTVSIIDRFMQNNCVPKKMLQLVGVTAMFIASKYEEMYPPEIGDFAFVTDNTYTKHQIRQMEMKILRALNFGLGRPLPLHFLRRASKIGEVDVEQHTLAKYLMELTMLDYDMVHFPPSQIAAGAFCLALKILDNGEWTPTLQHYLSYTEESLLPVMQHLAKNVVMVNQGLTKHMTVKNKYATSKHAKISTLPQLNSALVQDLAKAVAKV

For `OCCCNc1cncc(-c2ncnc(Nc3ccc(N4CCOCC4)cc3)n2)c1` [Compound 6, 3-((5-(4-((4-(4-morpholinyl)phenyl)amino)-1,3,5-triazin-2-yl)-3-pyridinyl)amino)-1-propanol], the IC50 – broadly, the concentration at which inhibition is half-maximal – was 1240 nM in assay [1] and 5.03 µM in assay [2].
For `OCCCNc1cncc(-c2ncnc(Nc3cccc(Cl)c3)n2)n1` [Compound 3, 3-((6-(4-((3-chlorophenyl)amino)-1,3,5-triazin-2-yl)pyrazin-2-yl)amino)-1-propanol] the same measures were 971 nM and 12.9 µM.
For `OCCCNc1cncc(-c2ncnc(Nc3ccc4c(c3)OCCO4)n2)c1` [Compound 5, 3-((5-(4-((2,3-dihydro-1,4-benzodioxin-6-yl)amino)-1,3,5-triazin-2-yl)-3-pyridinyl)amino)-1-propanol] the same measures were 382 nM and at least 10 µM.
For `Nc1nc(Nc2cccc(Cl)c2)nc(-c2ccnc(NCCCO)c2)n1` [Compound 4, 3-((4-(4-amino-6-((3-chlorophenyl)amino)-1,3,5-triazin-2-yl)-2-pyridinyl)amino)-1-propanol] the same measures were 766 nM and 0.865 µM.

The record behind these values is US7205298B2, “Substituted triazine kinase inhibitors” (Janssen Pharmaceutica N.V., priority 2002, dated 2007).
